Measured values taken from PubChem BioAssay AID2060899 (Molecular Pharmacology Branch, DTP, NCI, 2025).

Tested on: 565726-208-R1-J5-PDC complex spheroids, growth inhibition
Assay: Anticancer human tumor 565726-208-R1-J5-PDC patient-derived pancreatic adenocarcinoma cell line growth inhibition [RAS]
Settings: for viability, T/C: stronger effect = lower value
Outline: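 Multi-cell-type spheroids: tumor cells plus HUVEC endothelial cells and mesenchymal stem cells. RAS-pathway inhibitors were combined with targeted agents, each dosed in half-log steps down from clinical Cmax, or from 10 microM when Cmax was unknown.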

[1] = curve of first compound, second compound 0.00316 µM
[2] = curve of first compound, second compound 0.01 µM
[3] = curve of first compound, second compound 0.0316 µM
[4] = curve of first compound, second compound 0.1 µM
[5] = curve of first compound, second compound 0.316 µM
[6] = curve of first compound, second compound 1 µM
[7] = second compound 0.00316 µM, first compound 0.0316 µM
[8] = second compound 0.00316 µM, first compound 0.1 µM
[9] = second compound 0.00316 µM, first compound 0.316 µM
[10] = second compound 0.00316 µM, first compound 1 µM
[11] = second compound 0.01 µM, first compound 0.0316 µM
[12] = second compound 0.01 µM, first compound 0.1 µM
[13] = second compound 0.01 µM, first compound 0.316 µM
[14] = second compound 0.01 µM, first compound 1 µM
[15] = second compound 0.0316 µM, first compound 0.0316 µM
[16] = second compound 0.0316 µM, first compound 0.1 µM
[17] = second compound 0.0316 µM, first compound 0.316 µM
[18] = second compound 0.0316 µM, first compound 1 µM
[19] = second compound 0.1 µM, first compound 0.0316 µM
[20] = second compound 0.1 µM, first compound 0.1 µM
[21] = second compound 0.1 µM, first compound 0.316 µM
[22] = second compound 0.1 µM, first compound 1 µM
[23] = second compound 0.316 µM, first compound 0.0316 µM
[24] = second compound 0.316 µM, first compound 0.1 µM
[25] = second compound 0.316 µM, first compound 0.316 µM
[26] = second compound 0.316 µM, first compound 1 µM
[27] = second compound 1 µM, first compound 0.0316 µM
[28] = second compound 1 µM, first compound 0.1 µM
[29] = second compound 1 µM, first compound 0.316 µM
[30] = second compound 1 µM, first compound 1 µM
[31] = second compound 0.0316 µM, first compound 0.00316 µM
[32] = second compound 0.0316 µM, first compound 0.01 µM
[33] = second compound 0.1 µM, first compound 0.00316 µM
[34] = second compound 0.1 µM, first compound 0.01 µM
[35] = second compound 0.316 µM, first compound 0.00316 µM
[36] = second compound 0.316 µM, first compound 0.01 µM
[37] = second compound 1 µM, first compound 0.00316 µM
[38] = second compound 1 µM, first compound 0.01 µM
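Further: spheroids exposed to compounds for seven days before readout.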
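Wherever viability, T/C is given: 100% = DMSO vehicle control viability.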

## NC1c2ccccc2OC12CCN(c1cnc3c(N4CCCc5ncccc54)n[nH]c3n1)CC2 (stereo unspecified) + C=CC(=O)N1CCN(c2nc(OCC3CCCN3C)nc3c(F)c(-c4nc(N)cc(C)c4C(F)(F)F)c(Cl)cc23)C(C)C1
[1]
  IC50: > 10000 nM
[2]
  IC50: > 10000 nM
[3]
  IC50: > 10000 nM
[4]
  IC50: > 10000 nM
[5]
  IC50: > 10000 nM
[6]
  IC50: > 10000 nM
[7]
  viability, T/C: 72.7%
[8]
  viability, T/C: 94.8%
[9]
  viability, T/C: 66.4%
[10]
  viability, T/C: 59.4%
Second compound 0.00316 µM, first compound 3.16 µM
  viability, T/C: 75.9%
Second compound 0.00316 µM, first compound 10 µM
  viability, T/C: 106%
[11]
  viability, T/C: 83.5%
[12]
  viability, T/C: 121%
[13]
  viability, T/C: 70.8%
[14]
  viability, T/C: 59.3%
Second compound 0.01 µM, first compound 3.16 µM
  viability, T/C: 79.5%
Second compound 0.01 µM, first compound 10 µM
  viability, T/C: 102%
[15]
  viability, T/C: 122%
[16]
  viability, T/C: 135%
[17]
  viability, T/C: 61.5%
[18]
  viability, T/C: 70.8%
Second compound 0.0316 µM, first compound 3.16 µM
  viability, T/C: 85%
Second compound 0.0316 µM, first compound 10 µM
  viability, T/C: 92.4%
[19]
  viability, T/C: 136%
[20]
  viability, T/C: 131%
[21]
  viability, T/C: 88.6%
[22]
  viability, T/C: 56.3%
Second compound 0.1 µM, first compound 3.16 µM
  viability, T/C: 55%
Second compound 0.1 µM, first compound 10 µM
  viability, T/C: 93.7%
[23]
  viability, T/C: 108%
[24]
  viability, T/C: 134%
[25]
  viability, T/C: 59.7%
[26]
  viability, T/C: 64.7%
Second compound 0.316 µM, first compound 3.16 µM
  viability, T/C: 58.6%
Second compound 0.316 µM, first compound 10 µM
  viability, T/C: 104%
[27]
  viability, T/C: 99.5%
[28]
  viability, T/C: 109%
[29]
  viability, T/C: 69.3%
[30]
  viability, T/C: 61.8%
Second compound 1 µM, first compound 3.16 µM
  viability, T/C: 71.4%
Second compound 1 µM, first compound 10 µM
  viability, T/C: 106%

## C=CC(=O)Nc1cc(Nc2nccc(-c3cn(C)c4ccccc34)n2)c(OC)cc1N(C)CCN(C)C + C#Cc1c(F)ccc2cc(O)cc(-c3ncc4c(N5CC6CCC(C5)N6)nc(OCC56CCCN5CC(F)C6)nc4c3F)c12
[3]
  IC50: > 1000 nM
[4]
  IC50: > 1000 nM
[5]
  IC50: > 1000 nM
[6]
  IC50: > 1000 nM
Curve of first compound, second compound 3.16 µM
  IC50: > 1000 nM
Curve of first compound, second compound 10 µM
  IC50: 70.9 nM
[31]
  viability, T/C: 120%
[32]
  viability, T/C: 139%
[15]
  viability, T/C: 96.1%
[16]
  viability, T/C: 101%
[17]
  viability, T/C: 130%
[18]
  viability, T/C: 103%
[33]
  viability, T/C: 113%
[34]
  viability, T/C: 144%
[19]
  viability, T/C: 102%
[20]
  viability, T/C: 92.3%
[21]
  viability, T/C: 121%
[22]
  viability, T/C: 97.5%
[35]
  viability, T/C: 127%
[36]
  viability, T/C: 130%
[23]
  viability, T/C: 88.9%
[24]
  viability, T/C: 77.6%
[25]
  viability, T/C: 113%
[26]
  viability, T/C: 98.1%
[37]
  viability, T/C: 138%
[38]
  viability, T/C: 110%
[27]
  viability, T/C: 76.7%
[28]
  viability, T/C: 68.1%
[29]
  viability, T/C: 87.1%
[30]
  viability, T/C: 84.7%
Second compound 3.16 µM, first compound 0.00316 µM
  viability, T/C: 120%
Second compound 3.16 µM, first compound 0.01 µM
  viability, T/C: 85.2%
Second compound 3.16 µM, first compound 0.0316 µM
  viability, T/C: 65%
Second compound 3.16 µM, first compound 0.1 µM
  viability, T/C: 51.2%
Second compound 3.16 µM, first compound 0.316 µM
  viability, T/C: 72%
Second compound 3.16 µM, first compound 1 µM
  viability, T/C: 74%
Second compound 10 µM, first compound 0.00316 µM
  viability, T/C: 89.4%
Second compound 10 µM, first compound 0.01 µM
  viability, T/C: 86.5%
Second compound 10 µM, first compound 0.0316 µM
  viability, T/C: 64.1%
Second compound 10 µM, first compound 0.1 µM
  viability, T/C: 41.2%
Second compound 10 µM, first compound 0.316 µM
  viability, T/C: 50.7%
Second compound 10 µM, first compound 1 µM
  viability, T/C: 40.1%

## CCC(CC)c1cc(NC2CCC(N)C2)n2nccc2n1 (stereo unspecified)
Compound 0.316 µM
  viability, T/C: 105% [middle of 4 runs]
Compound 1 µM
  viability, T/C: 81.9% [middle of 4 runs]
Compound 3.16 µM
  viability, T/C: 1.5% [middle of 4 runs]
Compound 10 µM
  viability, T/C: 1.88% [middle of 4 runs]
Curve of compound
  IC50: 1.57 µM [middle of 4 runs]

## C=CC(=O)Nc1cc(Nc2nccc(-c3cn(C)c4ccccc34)n2)c(OC)cc1N(C)CCN(C)C + C=CC(=O)N1CCN(c2nc(OCC3CCCN3C)nc3c(F)c(-c4nc(N)cc(C)c4C(F)(F)F)c(Cl)cc23)C(C)C1
[1]
  IC50: > 1000 nM
[2]
  IC50: > 1000 nM
[3]
  IC50: > 1000 nM
[4]
  IC50: > 1000 nM
[5]
  IC50: > 1000 nM
[6]
  IC50: > 1000 nM
Second compound 0.00316 µM, first compound 0.00316 µM
  viability, T/C: 105%
Second compound 0.00316 µM, first compound 0.01 µM
  viability, T/C: 171%
[7]
  viability, T/C: 121%
[8]
  viability, T/C: 90.5%
[9]
  viability, T/C: 94.2%
[10]
  viability, T/C: 121%
Second compound 0.01 µM, first compound 0.00316 µM
  viability, T/C: 137%
Second compound 0.01 µM, first compound 0.01 µM
  viability, T/C: 150%
[11]
  viability, T/C: 106%
[12]
  viability, T/C: 94.1%
[13]
  viability, T/C: 80.9%
[14]
  viability, T/C: 128%
[31]
  viability, T/C: 168%
[32]
  viability, T/C: 157%
[15]
  viability, T/C: 88.9%
[16]
  viability, T/C: 105%
[17]
  viability, T/C: 87.6%
[18]
  viability, T/C: 114%
[33]
  viability, T/C: 135%
[34]
  viability, T/C: 162%
[19]
  viability, T/C: 124%
[20]
  viability, T/C: 87.1%
[21]
  viability, T/C: 82%
[22]
  viability, T/C: 108%
[35]
  viability, T/C: 161%
[36]
  viability, T/C: 152%
[23]
  viability, T/C: 99.8%
[24]
  viability, T/C: 106%
[25]
  viability, T/C: 74.8%
[26]
  viability, T/C: 141%
[37]
  viability, T/C: 145%
[38]
  viability, T/C: 159%
[27]
  viability, T/C: 101%
[28]
  viability, T/C: 115%
[29]
  viability, T/C: 87.3%
[30]
  viability, T/C: 109%
